Measured values taken from patent publication EP3510997B1, “SOFT GELATIN CAPSULES COMPRISING A SUSPENSION OF TADALAFIL” (Gap S.A., priority 2018, dated 2019).

Legend:
[1] = cited from earlier work
[2] = Solubility studies of tadalafil in vegetable oils; type: physicochemical; details: such as olive oil, sunflower oil, safflower oil, soybean oil
Description: Suspension formulations of tadalafil were initially produced in soybean oil, and in a mixture of hydrogenated and partially-hydrogenated soybean oil in order to produce a stable suspension.

Compound: CN1CC(=O)N2[C@H](c3ccc4c(c3)OCO4)c3[nH]c4ccccc4c3C[C@@H]2C1=O [Tadalafil, (6R,12aR)-6-(Benzo[d][1,3]dioxol-5-yl)-2-methyl-2,3,12,12a]
- solubility in ethanol and other organic solvents ([1]; ethanol and other organic solvents): very slightly soluble
- solubility in water ([1]; water): practically insoluble
- solubility in vegetable oils [2]: practically insoluble
